Measured values from publication PMC9518248, “Inhibition of Toxoplasma gondii by 1,2,4-triazole-based compounds: marked improvement in selectivity relative to the standard therapy pyrimethamine and sulfadiazine” (Journal of Enzyme Inhibition and Medicinal Chemistry, 2022).
≈ marks a conversion by molar mass, not a printed value. Like-named read-outs stand apart in the source and are kept apart here.

How the values were obtained:
[1] = system: mouse fibroblasts L929 cells; parameters: method as in PMID 31022878, PMID 30744161; conditions: thiosemicarbazides 1a–27a; cited from earlier work
T. gondii RH-GFP [2] = system: T. gondii RH-GFP; parameters: method as in PMID 31022878, PMID 30744161; conditions: thiosemicarbazides 1a–27a, cited from earlier work; for SI: CC30/IC50Tg; for IC50Tg: T. gondii infected Hs27 cells
T. gondii RH-GFP [3] = experiment: Antiparasitic assay: T. gondii RH-GFP proliferation in Hs27 cells; type: cell-based, Toxoplasma gondii; conditions: for IC50: Toxoplasma gondii, T. gondii RH-GFP in Hs27 cells, 96 h, values above highest tested concentration extrapolated, read-out: IC50Tg; for SI: selectivity index, CC30 (L929)/IC50Tg
[4] = system: mouse fibroblasts L929 cells; experiment: Cell viability assay (MTT, ISO 10993-5); type: cell-based; conditions: 24 h, highest dilution causing 30% or higher destruction of cells
Protocol: Culture medium RPMI 1640, without phenol red (Biowest, Nuaille, France) supplemented with 10% FBS, 2 mM […] penicillin, 100 μg/mL streptomycin were used. Briefly, 1 × 10^4/well of L929 cells were placed in 96-well plates and incubated for 24 h at 37 °C and 10% CO2. Afterwards, the old culture medium was replaced with 100 μL of the compound, drug or inhibitor, diluted in culture medium and the cells treated for 24 h. Additionally, cells were treated with 0.03-4.0% concentration of DMSO as the solvent (data not shown). Then, 50 μL of 1 mg/mL of MTT solution in RPMI 1640 without phenol red was added to each well and incubated for 2 h at 37 °C and 10% CO2. Next, cell culture medium was aspirated carefully and 150 μL of DMSO was added to each well, and the plates were gently mixed. Then, 25 μL 0.1 M glycine buffer (pH 10.5) (Sigma-Aldrich) was added. The optical density at 570 nm using a multi-mode microplate reader SpectraMax® i3 (Syngen, Taipei City, Taiwan) was recorded. The results were expressed as a percentage of viability compared to untreated cells. All experiments were performed in triplicate. The reported methyl thiazolyltetrazole (MTT) method was used to study in vitro cytotoxic profile of the s-triazoles 1b-27b to the host cells (L929). Experiments were performed in accordance with the international standard IS0-10993-5:2009. […] The data for acyclic precursors 1a-27a are also included for comparison[39]^,[40].

## Cc1nc[nH]c1C(=O)NNC(=S)Nc1ccccc1F [1a]
[1]
  CC30: 289.6 µg/mL (≈ 987 µM)
T. gondii RH-GFP [2]
  SI: 4.21
  IC50Tg: 68.83 µg/mL (≈ 235 µM)

## Cc1nc[nH]c1-c1n[nH]c(=S)n1-c1ccccc1F [1b]
T. gondii RH-GFP [3]
  IC50: 220 µg/mL (≈ 799 µM)
  SI: 5.78
[4]
  CC30: 1270.57 µg/mL (≈ 4620 µM)

## Cc1nc[nH]c1C(=O)NNC(=S)Nc1cccc(F)c1 [2a]
[1]
  CC30: 125.17 µg/mL (≈ 427 µM)
T. gondii RH-GFP [2]
  SI: 1.10
  IC50Tg: 113.45 µg/mL (≈ 387 µM)

## Cc1nc[nH]c1-c1n[nH]c(=S)n1-c1cccc(F)c1 [2b, 4–(3-fluorophenyl)-5–(4-methylimidazol-5-yl)-1,2,4-triazole-3-thione]
T. gondii RH-GFP [3]
  IC50: 103 µg/mL (≈ 374 µM)
  SI: 24.26
other
  melting point: 284 °C

## Cc1nc[nH]c1C(=O)NNC(=S)Nc1ccc(F)cc1 [3a]
[1]
  CC30: 266.01 µg/mL (≈ 907 µM)
T. gondii RH-GFP [2]
  SI: 2.41
  IC50Tg: 110.31 µg/mL (≈ 376 µM)

## Cc1nc[nH]c1-c1n[nH]c(=S)n1-c1ccc(F)cc1 [3b]
T. gondii RH-GFP [3]
  IC50: 206 µg/mL (≈ 748 µM)
  SI: 0.55
[4]
  CC30: 113.71 µg/mL (≈ 413 µM)

## Cc1nc[nH]c1C(=O)NNC(=S)Nc1ccccc1Cl [4a]
[1]
  CC30: 143.15 µg/mL (≈ 462 µM)
T. gondii RH-GFP [2]
  SI: 4.02
  IC50Tg: 35.61 µg/mL (≈ 115 µM)

## Cc1nc[nH]c1-c1n[nH]c(=S)n1-c1ccccc1Cl [4b, 4–(2-chlorophenyl)-5–(4-methylimidazol-5-yl)-1,2,4-triazole-3-thione]
T. gondii RH-GFP [3]
  IC50: 345 µg/mL (≈ 1180 µM)
  SI: 2.03
[4]
  CC30: 698.23 µg/mL (≈ 2390 µM)
other
  melting point: 243.4 °C

## Cc1nc[nH]c1C(=O)NNC(=S)Nc1cccc(Cl)c1 [5a]
[1]
  CC30: 96.78 µg/mL (≈ 312 µM)
T. gondii RH-GFP [2]
  IC50Tg: 25.70 µg/mL (≈ 83 µM)

## Cc1nc[nH]c1-c1n[nH]c(=S)n1-c1cccc(Cl)c1 [5b, 4–(3-chlorophenyl)-5–(4-methylimidazol-5-yl)-1,2,4-triazole-3-thione]
T. gondii RH-GFP [3]
  IC50: 310 µg/mL (≈ 1060 µM)
  SI: 2.32
[4]
  CC30: 721.27 µg/mL (≈ 2470 µM)
other
  melting point: 297.8 °C

## Cc1nc[nH]c1C(=O)NNC(=S)Nc1ccc(Cl)cc1 [6a]
[1]
  CC30: 94.12 µg/mL (≈ 304 µM)
T. gondii RH-GFP [2]
  SI: 1.28
  IC50Tg: 73.37 µg/mL (≈ 237 µM)

## Cc1nc[nH]c1-c1n[nH]c(=S)n1-c1ccc(Cl)cc1 [6b, 4–(4-chlorophenyl)-5–(4-methylimidazol-5-yl)-1,2,4-triazole-3-thione]
T. gondii RH-GFP [3]
  IC50: 267 µg/mL (≈ 914 µM)
  SI: 1.73
[4]
  CC30: 460.26 µg/mL (≈ 1580 µM)
other
  melting point: 255.8 °C

## Cc1nc[nH]c1C(=O)NNC(=S)Nc1ccccc1Br [7a]
[1]
  CC30: 205.31 µg/mL (≈ 580 µM)
T. gondii RH-GFP [2]
  SI: 7.43
  IC50Tg: 27.65 µg/mL (≈ 78.1 µM)

## Cc1nc[nH]c1-c1n[nH]c(=S)n1-c1ccccc1Br [7b, 4–(2-bromophenyl)-5–(4-methylimidazol-5-yl)-1,2,4-triazole-3-thione]
T. gondii RH-GFP [3]
  IC50: 66.7 µg/mL (≈ 199 µM)
  SI: 31.72
[4]
  CC30: 2116.90 µg/mL (≈ 6300 µM)
other
  melting point: 235.6 °C

## Cc1nc[nH]c1C(=O)NNC(=S)Nc1cccc(Br)c1 [8a]
[1]
  CC30: 96.12 µg/mL (≈ 271 µM)
T. gondii RH-GFP [2]
  SI: 6.15
  IC50Tg: 15.64 µg/mL (≈ 44.2 µM)

## Cc1nc[nH]c1-c1n[nH]c(=S)n1-c1cccc(Br)c1 [8b, 4–(3-bromophenyl)-5–(4-methylimidazol-5-yl)-1,2,4-triazole-3-thione]
T. gondii RH-GFP [3]
  IC50: 103 µg/mL (≈ 306 µM)
  SI: 6.41
[4]
  CC30: 660.09 µg/mL (≈ 1960 µM)
other
  melting point: 299.7 °C

## Cc1nc[nH]c1C(=O)NNC(=S)Nc1ccc(Br)cc1 [9a]
[1]
  CC30: 48.89 µg/mL (≈ 138 µM)
T. gondii RH-GFP [2]
  SI: 3.36
  IC50Tg: 14.57 µg/mL (≈ 41.1 µM)

## Cc1nc[nH]c1-c1n[nH]c(=S)n1-c1ccc(Br)cc1 [9b, 4–(4-bromophenyl)-5–(4-methylimidazol-5-yl)-1,2,4-triazole-3-thione]
T. gondii RH-GFP [3]
  IC50: 153 µg/mL (≈ 455 µM)
  SI: 1.48
[4]
  CC30: 225.58 µg/mL (≈ 671 µM)
other
  melting point: 265.9 °C

## Cc1nc[nH]c1C(=O)NNC(=S)Nc1ccccc1I [10a]
[1]
  CC30: 101.58 µg/mL (≈ 253 µM)
T. gondii RH-GFP [2]
  SI: 5.00
  IC50Tg: 20.31 µg/mL (≈ 50.6 µM)

## Cc1nc[nH]c1-c1n[nH]c(=S)n1-c1ccccc1I [10b, 4–(2-iodophenyl)-5–(4-methylimidazol-5-yl)-1,2,4-triazole-3-thione]
T. gondii RH-GFP [3]
  IC50: 80.3 µg/mL (≈ 209 µM)
  SI: 12.73
[4]
  CC30: 1021.41 µg/mL (≈ 2670 µM)
other
  melting point: 297.6 °C

## Cc1nc[nH]c1C(=O)NNC(=S)Nc1cccc(I)c1 [11a]
[1]
  CC30: 85.57 µg/mL (≈ 213 µM)
T. gondii RH-GFP [2]
  SI: 8.31
  IC50Tg: 10.3 µg/mL (≈ 25.7 µM)

## Cc1nc[nH]c1-c1n[nH]c(=S)n1-c1cccc(I)c1 [11b, 4–(3-iodophenyl)-5–(4-methylimidazol-5-yl)-1,2,4-triazole-3-thione]
T. gondii RH-GFP [3]
  IC50: 36.4 µg/mL (≈ 95.1 µM)
  SI: 17.16
[4]
  CC30: 625.17 µg/mL (≈ 1630 µM)
other
  melting point: 276.5 °C
